# Results: ChEMBL document CHEMBL4364331, “Identification of CB1 Receptor Allosteric Sites Using Force-Biased MMC Simulated Annealing and Validation by Structure-Activity Relationship Studies” (ACS Med Chem Lett, 2019)
# Legend:
# Cannabinoid receptor 1 [1] = molecular target: Cannabinoid receptor 1 (Mus musculus, UniProt P47746); assay: Positive allosteric modulatory activity at mouse CB1R expressed in CHO-K1 cells assessed as CP55940-induced beta-arrestin2 recruitment by pathhunter beta-arrestin assay; format: cell-based
# Cannabinoid receptor 1 (Mus musculus, UniProt P47746), sequence (P47746 whole entry): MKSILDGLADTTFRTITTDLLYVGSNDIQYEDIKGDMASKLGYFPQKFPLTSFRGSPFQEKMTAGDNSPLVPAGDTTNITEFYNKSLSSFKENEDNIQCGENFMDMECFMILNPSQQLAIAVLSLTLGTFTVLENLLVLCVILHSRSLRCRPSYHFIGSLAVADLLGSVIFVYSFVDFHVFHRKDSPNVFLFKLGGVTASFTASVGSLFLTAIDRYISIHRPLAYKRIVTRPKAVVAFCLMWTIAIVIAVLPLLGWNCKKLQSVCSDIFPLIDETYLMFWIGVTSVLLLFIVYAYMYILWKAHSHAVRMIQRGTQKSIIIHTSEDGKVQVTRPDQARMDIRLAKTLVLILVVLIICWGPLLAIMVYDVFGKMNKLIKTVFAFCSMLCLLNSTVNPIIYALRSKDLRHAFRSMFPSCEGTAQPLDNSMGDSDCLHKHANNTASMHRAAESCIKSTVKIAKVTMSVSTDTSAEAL
# Cannabinoid receptor 1 [2] = molecular target: T1, Cannabinoid receptor 1 (Homo sapiens, UniProt P21554); assay: Positive allosteric modulatory activity at human CB1R expressed in CHO-K1 cells assessed as CP55940-induced cAMP level by hit-hunter cAMP assay relative to control; format: functional, cell-based
# T1 sequence (P21554 whole entry): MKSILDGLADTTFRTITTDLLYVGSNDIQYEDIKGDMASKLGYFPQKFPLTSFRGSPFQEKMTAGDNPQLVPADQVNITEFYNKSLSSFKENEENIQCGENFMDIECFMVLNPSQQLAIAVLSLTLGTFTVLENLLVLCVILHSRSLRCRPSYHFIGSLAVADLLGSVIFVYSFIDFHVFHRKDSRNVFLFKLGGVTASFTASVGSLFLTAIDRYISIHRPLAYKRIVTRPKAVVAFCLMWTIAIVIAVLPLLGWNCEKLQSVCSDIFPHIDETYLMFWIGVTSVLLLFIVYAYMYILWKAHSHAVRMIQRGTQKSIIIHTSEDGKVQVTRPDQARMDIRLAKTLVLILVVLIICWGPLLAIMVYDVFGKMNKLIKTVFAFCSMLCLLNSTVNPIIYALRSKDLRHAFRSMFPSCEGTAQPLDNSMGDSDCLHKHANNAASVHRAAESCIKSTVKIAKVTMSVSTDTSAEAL
# [3] = molecular target: Cannabinoid receptor 1 (Mus musculus) (UniProt P47746); assay: Positive allosteric modulatory activity at mouse CB1R expressed in CHO-K1 cells assessed as CP55940-induced beta-arrestin2 recruitment by pathhunter beta-arrestin assay relative to control; format: cell-based
# Cannabinoid receptor 1 (Mus musculus), sequence (P47746 whole entry): as the sequence (P47746 whole entry) above
# Cannabinoid receptor 1 [4] = molecular target: T1, Cannabinoid receptor 1; assay: Positive allosteric modulatory activity at human CB1R expressed in CHO-K1 cells assessed as CP55940-induced cAMP level by hit-hunter cAMP assay; format: functional, cell-based
Compound,EC50 (Cannabinoid receptor 1 [1]),Emax (Cannabinoid receptor 1 [2]),Emax [3],EC50 (Cannabinoid receptor 1 [4])
O=[N+]([O-])CC(c1ccccc1)c1c(-c2ccccc2)[nH]c2ccccc12 (stereo unspecified),0.94 µM,110%,46%,–
O=[N+]([O-])CC(c1ccccc1)c1cc[nH]c1-c1ccccc1 (stereo unspecified),> 10 µM,0%,0%,> 10 µM
Cn1c(-c2ccccc2)c(C(C[N+](=O)[O-])c2ccccc2)c2ccccc21 (stereo unspecified),> 10 µM,0%,0%,> 10 µM
O=[N+]([O-])CC(c1ccccc1)c1cn(-c2ccccc2)c2ccccc12 (stereo unspecified),> 10 µM,0%,0%,> 10 µM
O=[N+]([O-])CCc1c(-c2ccccc2)[nH]c2ccccc12,> 10 µM,85%,0%,5.53 µM
NCC(c1ccccc1)c1c(-c2ccccc2)[nH]c2ccccc12 (stereo unspecified),> 10 µM,12%,12%,> 10 µM
O=[N+]([O-])CC(c1ccccc1)c1c[nH]c2ccccc12 (stereo unspecified),> 10 µM,0%,0%,> 10 µM
O=[N+]([O-])CC(c1ccccc1)c1c(C2CCCCC2)[nH]c2ccccc12 (stereo unspecified),> 10 µM,121%,0%,0.992 µM
